US20240196932A1, “NOVEL USE” (DSM IP Assets B.V., priority 2021, published 2024)

Test system: rumen liquor
Experiment: In vitro test for methane production (modified Hohenheim Forage value Test, HFT)
Type: cell-based
Details: for Total methane change [% vs. control]: TMR feed, 8 hours at 39° C, average of four to eight experiments
Experimental: In vitro test for methane production: A modified version of the “Hohenheim Forage value Test (HFT)” was used for testing the effect of specific compounds on the rumen functions mimicked by this in-vitro system.
Principle: Feed is gadded into a syringe with a composition of rumen liquor and an appropriate mixture of buffers. The solution is incubated at 39° C. After 8 hours the quantity (and composition) of gas phase produced is measured and put into a formula for conversion.
Sample weighing: The feed stuff (i.e. TMR (44% concentrate, 6% hay, 37% maize silage and 13% grass silage) is sieved to 1 mm and weighed exactly into 64 syringes. 4 of these syringes are the substrate controls, which display the gas production without the effect of the tested compounds. The remaining syringes contain the test substances, by groups of 4 syringes.
The components are mixed in a Woulff bottle in following order: • 711 ml water • 0.18 ml trace element solution • 355.5 ml buffer solution • 355.5 ml mass element solution • The completed solution is warmed up to 39° C.followed by the addition of 1.83 ml sodium salt solution and the addition of reduction solution at 36° C. The rumen liquor is added, when the indicator turns colourless.
Extraction of the rumen liquor: 750 ml of rumen liquor are added to approximately 1,400 ml of medium solution under continued agitation and CO2-gassing.
Filling the syringes, incubation and determining gas volumes and VFA values: The diluted rumen fluid (24 ml) is added to the glass syringe. The syringes are then incubated for 8 hours at 39° C.under gentle agitation. After 8 hours, the volume of gas produced is measured, and the percentage of methane in the gas phase is determined by gas chromatography.
The food fermented was artificial TMR (44% concentrate, 6% hay, 37% maize silage and 13% grass silage). Gossypol was obtained from Sigma-Aldrich (G8761), and used at a concentration as outlined in table 1. 3-Nitrooxy-propanol (3-NOP) was used at the concentration as outlined in table 1.

`Cc1cc2c(C(C)C)c(O)c(O)c(C=O)c2c(O)c1-c1c(C)cc2c(C(C)C)c(O)c(O)c(C=O)c2c1O` (racemic) [gossypol, Gossypol] was tested, and the “Total methane change [% vs. control]” value (gossypol 5 μM, listed as prints 2 g/animal/day) was −1 % vs. control, the “Total methane change [% vs. control]” value (gossypol 10 μM, listed as prints 4.3 g/animal/day) was −11 % vs. control and the “Total methane change [% vs. control]” value (gossypol 20 μM, listed as prints 8.6 g/animal/day) was −15 % vs. control. The “Total methane change [% vs. control]” value (gossypol 100 μM, listed as prints 17.3 g/animal/day) was −69 % vs. control and the methane reduction (gossypol concentrations of at least 7.5 g gossypol/animal/day) was “Clear effects”.
